Measurements reported in the kinase profiling compilation of Christmann-Franck et al. (2016).

How the values were obtained:
Test in all cases: radiometric filter-binding kinase assay, Kinase HotSpot
Details in all cases: compound 0.5 µM; ATP 10 µM
ALK (human) = ALK (human) (UniProt Q9UM73)
BLK (human) = BLK (human) (UniProt P51451)
BRSK2 (human) = BRSK2 (human) (UniProt Q8IWQ3)
CAMKK2 (human) = CAMKK2 (human) (UniProt Q96RR4)
CDK6 CCND3 (human) = CDK6 CCND3 (human) (UniProt P30281+Q00534)
CLK2 (human) = CLK2 (human) (UniProt P49760)
CLK2 (human), sequence (P49760 whole entry, looked up): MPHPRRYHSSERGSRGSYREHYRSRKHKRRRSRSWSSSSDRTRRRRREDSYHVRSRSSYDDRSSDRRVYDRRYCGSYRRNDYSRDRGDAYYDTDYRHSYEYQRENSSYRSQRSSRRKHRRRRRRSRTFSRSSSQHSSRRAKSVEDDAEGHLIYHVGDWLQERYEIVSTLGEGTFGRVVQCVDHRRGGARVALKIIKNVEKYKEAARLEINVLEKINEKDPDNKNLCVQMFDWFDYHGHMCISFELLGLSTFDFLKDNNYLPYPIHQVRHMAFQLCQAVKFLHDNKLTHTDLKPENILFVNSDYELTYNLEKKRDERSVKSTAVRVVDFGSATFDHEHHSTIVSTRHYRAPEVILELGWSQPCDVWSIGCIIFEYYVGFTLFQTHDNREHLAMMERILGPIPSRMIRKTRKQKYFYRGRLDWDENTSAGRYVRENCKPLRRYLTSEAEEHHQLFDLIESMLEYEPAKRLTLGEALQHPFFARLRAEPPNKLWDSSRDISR

CSK (human) = CSK (human) (UniProt P41240)
CSNK2A1 (human) = CSNK2A1 (human) (UniProt P68400)
CSNK2A1 (human), sequence (P68400 whole entry, looked up): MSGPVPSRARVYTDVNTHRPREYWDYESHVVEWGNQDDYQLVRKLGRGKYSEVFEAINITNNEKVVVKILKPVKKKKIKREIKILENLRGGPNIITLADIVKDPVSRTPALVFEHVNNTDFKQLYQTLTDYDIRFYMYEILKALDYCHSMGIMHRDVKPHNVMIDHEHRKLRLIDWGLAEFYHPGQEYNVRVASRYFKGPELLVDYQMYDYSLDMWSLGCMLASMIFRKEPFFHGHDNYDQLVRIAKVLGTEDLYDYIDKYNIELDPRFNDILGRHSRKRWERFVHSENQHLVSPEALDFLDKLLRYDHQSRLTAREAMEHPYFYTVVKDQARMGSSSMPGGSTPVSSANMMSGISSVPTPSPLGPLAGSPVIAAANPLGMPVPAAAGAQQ

DAPK2 (human) = DAPK2 (human) (UniProt Q9UIK4)
DAPK2 (human), sequence (Q9UIK4 whole entry, looked up): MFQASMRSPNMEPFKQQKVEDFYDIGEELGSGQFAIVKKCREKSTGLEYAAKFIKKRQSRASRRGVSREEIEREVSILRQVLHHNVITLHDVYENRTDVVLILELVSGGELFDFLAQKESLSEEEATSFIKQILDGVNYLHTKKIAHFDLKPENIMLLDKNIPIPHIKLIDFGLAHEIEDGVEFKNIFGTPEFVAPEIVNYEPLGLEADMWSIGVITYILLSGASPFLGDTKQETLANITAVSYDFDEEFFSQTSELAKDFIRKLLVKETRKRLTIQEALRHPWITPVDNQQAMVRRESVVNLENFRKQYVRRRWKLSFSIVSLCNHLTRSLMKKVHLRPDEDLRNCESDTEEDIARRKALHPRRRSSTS

DDR2 (human) = DDR2 (human) (UniProt Q16832)
DYRK1A (human) = DYRK1A (human) (UniProt Q13627)
EPHA3 (human) = EPHA3 (human) (UniProt P29320)
ERBB4 (human) = ERBB4 (human) (UniProt Q15303)
FGFR1 (human) = FGFR1 (human) (UniProt P11362)
FGFR2 (human) = FGFR2 (human) (UniProt P21802)
FGFR3 (human) = FGFR3 (human) (UniProt P22607)
GRK6 (human) = GRK6 (human) (UniProt P43250)
GSK3A (human) = GSK3A (human) (UniProt P49840)
HCK (human) = HCK (human) (UniProt P08631)
IRAK1 (human) = IRAK1 (human) (UniProt P51617)
IRAK1 (human), sequence (P51617 whole entry, looked up): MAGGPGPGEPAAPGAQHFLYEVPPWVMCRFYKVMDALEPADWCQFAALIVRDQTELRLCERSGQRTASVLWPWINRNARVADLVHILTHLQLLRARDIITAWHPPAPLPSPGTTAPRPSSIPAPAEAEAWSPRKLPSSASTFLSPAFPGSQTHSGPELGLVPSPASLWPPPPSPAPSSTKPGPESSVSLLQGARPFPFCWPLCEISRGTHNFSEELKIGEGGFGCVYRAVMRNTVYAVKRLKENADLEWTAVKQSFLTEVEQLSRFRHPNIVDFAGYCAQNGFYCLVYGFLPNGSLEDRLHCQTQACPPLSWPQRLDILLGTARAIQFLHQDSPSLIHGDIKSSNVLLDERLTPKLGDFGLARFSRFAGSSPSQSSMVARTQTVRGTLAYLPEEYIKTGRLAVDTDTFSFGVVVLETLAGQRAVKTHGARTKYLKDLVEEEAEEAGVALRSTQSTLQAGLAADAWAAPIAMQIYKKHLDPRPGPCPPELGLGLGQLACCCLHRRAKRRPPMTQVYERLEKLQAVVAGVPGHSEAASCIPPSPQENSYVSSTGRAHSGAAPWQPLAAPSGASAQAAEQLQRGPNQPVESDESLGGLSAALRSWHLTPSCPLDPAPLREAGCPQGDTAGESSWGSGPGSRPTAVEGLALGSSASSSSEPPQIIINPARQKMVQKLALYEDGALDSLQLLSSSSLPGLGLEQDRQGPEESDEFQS

JAK2 JH1 JH2 (human) = JAK2 JH1 JH2 (human) (UniProt O60674)
LTK (human) = LTK (human) (UniProt P29376)
MAP3K7 TAB1 (human) = MAP3K7 TAB1 (human) (UniProt O43318+Q15750)
MAP3K7 TAB1 (human), sequence (O43318 whole entry, looked up): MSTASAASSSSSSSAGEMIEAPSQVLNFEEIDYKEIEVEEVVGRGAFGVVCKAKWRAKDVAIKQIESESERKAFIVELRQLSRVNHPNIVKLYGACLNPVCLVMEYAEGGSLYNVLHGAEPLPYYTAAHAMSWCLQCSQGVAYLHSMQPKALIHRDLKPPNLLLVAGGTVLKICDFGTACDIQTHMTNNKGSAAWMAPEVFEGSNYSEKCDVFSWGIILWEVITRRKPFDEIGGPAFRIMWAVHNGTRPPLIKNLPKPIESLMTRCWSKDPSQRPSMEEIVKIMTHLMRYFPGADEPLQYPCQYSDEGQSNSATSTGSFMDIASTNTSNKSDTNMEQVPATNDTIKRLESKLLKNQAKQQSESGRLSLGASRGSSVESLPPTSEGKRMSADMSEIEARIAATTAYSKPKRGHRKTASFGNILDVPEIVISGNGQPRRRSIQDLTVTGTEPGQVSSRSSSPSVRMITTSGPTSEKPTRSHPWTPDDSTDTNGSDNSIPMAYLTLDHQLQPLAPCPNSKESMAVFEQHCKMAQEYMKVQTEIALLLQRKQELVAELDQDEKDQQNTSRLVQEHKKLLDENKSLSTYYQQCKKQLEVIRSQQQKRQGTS
MAP3K7 TAB1 (human), sequence (Q15750 whole entry, looked up): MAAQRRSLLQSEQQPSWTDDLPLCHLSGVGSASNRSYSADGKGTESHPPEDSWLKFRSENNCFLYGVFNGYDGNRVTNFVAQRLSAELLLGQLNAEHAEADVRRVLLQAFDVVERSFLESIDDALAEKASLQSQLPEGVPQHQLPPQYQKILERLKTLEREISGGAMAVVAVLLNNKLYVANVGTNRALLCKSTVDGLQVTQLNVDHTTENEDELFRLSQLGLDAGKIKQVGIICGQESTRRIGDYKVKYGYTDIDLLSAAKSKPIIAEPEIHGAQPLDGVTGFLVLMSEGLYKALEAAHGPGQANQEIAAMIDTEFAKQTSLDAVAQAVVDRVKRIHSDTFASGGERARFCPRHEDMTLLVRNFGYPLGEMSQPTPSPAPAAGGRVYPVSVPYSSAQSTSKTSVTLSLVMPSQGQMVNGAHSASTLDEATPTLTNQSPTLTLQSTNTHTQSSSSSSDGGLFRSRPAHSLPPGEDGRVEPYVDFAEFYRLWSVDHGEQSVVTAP

MARK2 (human) = MARK2 (human) (UniProt Q7KZI7)
MLTK (human) = MLTK (human) (UniProt Q9NYL2)
MYLK (human) = MYLK (human) (UniProt Q15746)
NEK4 (human) = NEK4 (human) (UniProt P51957)
PLK2 (human) = PLK2 (human) (UniProt Q9NYY3)
PRKACA (human) = PRKACA (human) (UniProt P17612)
PRKCA (human) = PRKCA (human) (UniProt P17252)
PRKX (human) = PRKX (human) (UniProt P51817)
RPS6KA4 KD2 (human) = RPS6KA4 KD2 (human) (UniProt O75676)
RPS6KA6 KD1 KD2 (human) = RPS6KA6 KD1 KD2 (human) (UniProt Q9UK32)
SIK2 (human) = SIK2 (human) (UniProt Q9H0K1)
SRPK1 (human) = SRPK1 (human) (UniProt Q96SB4)
STK16 (human) = STK16 (human) (UniProt O75716)
STK16 (human), sequence (O75716 whole entry, looked up): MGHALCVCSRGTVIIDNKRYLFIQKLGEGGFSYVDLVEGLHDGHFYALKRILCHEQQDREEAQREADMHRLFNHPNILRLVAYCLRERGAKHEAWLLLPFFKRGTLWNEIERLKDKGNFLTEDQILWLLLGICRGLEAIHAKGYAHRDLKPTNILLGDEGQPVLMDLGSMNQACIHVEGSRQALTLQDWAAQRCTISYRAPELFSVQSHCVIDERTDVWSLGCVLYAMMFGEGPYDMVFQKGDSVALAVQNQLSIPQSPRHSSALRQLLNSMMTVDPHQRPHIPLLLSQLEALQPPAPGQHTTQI

STK39 (human) = STK39 (human) (UniProt Q9UEW8)
TTK (human) = TTK (human) (UniProt P33981)
TTK (human), sequence (P33981 whole entry, looked up): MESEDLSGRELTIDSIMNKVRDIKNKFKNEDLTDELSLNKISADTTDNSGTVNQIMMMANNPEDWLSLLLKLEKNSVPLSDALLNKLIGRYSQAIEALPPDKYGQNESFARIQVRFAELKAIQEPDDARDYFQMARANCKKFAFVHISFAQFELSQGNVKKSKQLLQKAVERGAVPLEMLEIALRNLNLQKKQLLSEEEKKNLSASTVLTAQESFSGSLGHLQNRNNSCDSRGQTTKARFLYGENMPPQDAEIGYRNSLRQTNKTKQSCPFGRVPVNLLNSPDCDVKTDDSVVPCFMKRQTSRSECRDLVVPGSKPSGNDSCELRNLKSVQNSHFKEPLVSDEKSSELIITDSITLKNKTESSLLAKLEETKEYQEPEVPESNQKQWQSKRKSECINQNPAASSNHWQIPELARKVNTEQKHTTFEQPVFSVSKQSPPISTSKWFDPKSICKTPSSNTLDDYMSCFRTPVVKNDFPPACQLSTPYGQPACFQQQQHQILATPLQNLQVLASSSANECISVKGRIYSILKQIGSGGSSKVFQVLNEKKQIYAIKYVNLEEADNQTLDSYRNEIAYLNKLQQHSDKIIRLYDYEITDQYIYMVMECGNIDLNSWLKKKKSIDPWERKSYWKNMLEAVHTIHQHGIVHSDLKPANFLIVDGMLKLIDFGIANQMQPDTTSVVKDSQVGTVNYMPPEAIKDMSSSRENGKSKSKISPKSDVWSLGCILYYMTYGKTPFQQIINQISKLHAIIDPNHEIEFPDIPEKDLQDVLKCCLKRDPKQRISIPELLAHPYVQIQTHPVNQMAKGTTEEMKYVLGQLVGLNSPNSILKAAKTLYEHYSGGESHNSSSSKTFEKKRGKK

WNK2 (human) = WNK2 (human) (UniProt Q9Y3S1)
WNK3 (human) = WNK3 (human) (UniProt Q9BYP7)
ZAP70 (human) = ZAP70 (human) (UniProt P43403)

CAMKK2 (human), sequence (Q96RR4 whole entry, looked up): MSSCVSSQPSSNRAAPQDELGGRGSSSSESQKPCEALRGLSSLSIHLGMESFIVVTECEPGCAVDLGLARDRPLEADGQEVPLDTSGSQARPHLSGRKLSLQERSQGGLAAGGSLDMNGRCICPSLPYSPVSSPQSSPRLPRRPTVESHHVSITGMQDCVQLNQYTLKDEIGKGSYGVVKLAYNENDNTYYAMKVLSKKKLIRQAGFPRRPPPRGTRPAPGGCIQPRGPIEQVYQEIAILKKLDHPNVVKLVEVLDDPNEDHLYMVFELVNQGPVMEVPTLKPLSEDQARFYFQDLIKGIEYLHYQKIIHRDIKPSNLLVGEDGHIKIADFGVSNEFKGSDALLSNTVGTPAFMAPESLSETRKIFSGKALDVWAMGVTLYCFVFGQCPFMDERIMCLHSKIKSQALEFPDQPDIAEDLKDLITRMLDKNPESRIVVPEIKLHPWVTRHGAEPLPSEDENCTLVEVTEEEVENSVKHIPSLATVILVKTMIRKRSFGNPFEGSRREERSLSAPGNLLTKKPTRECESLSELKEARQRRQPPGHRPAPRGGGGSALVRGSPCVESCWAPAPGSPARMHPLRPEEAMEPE

SMILES: CC(C)[C@H](CO)Nc1nc(Nc2cccc(Cl)c2)c2ncn(C(C)C)c2n1
- residual activity (ALK (human)): 100%
- residual activity (BLK (human)): 68.8%
- residual activity (BRSK2 (human)): 97.8%
- residual activity (CAMKK2 (human)): 70.9%
- residual activity (CDK6 CCND3 (human)): 71%
- residual activity (CLK2 (human)): 21.9%
- residual activity (CSK (human)): 98.1%
- residual activity (CSNK2A1 (human)): 101%
- residual activity (DAPK2 (human)): 111%
- residual activity (DDR2 (human)): 99.1%
- residual activity (DYRK1A (human)): 65.4%
- residual activity (EPHA3 (human)): 105%
- residual activity (ERBB4 (human)): 78.4%
- residual activity (FGFR1 (human)): 80.6%
- residual activity (FGFR2 (human)): 105%
- residual activity (FGFR3 (human)): 99.2%
- residual activity (GRK6 (human)): 98.3%
- residual activity (GSK3A (human)): 108%
- residual activity (HCK (human)): 55.6%
- residual activity (IRAK1 (human)): 109%
- residual activity (JAK2 JH1 JH2 (human)): 97.7%
- residual activity (LTK (human)): 100%
- residual activity (MAP3K7 TAB1 (human)): 71.1%
- residual activity (MARK2 (human)): 95.7%
- residual activity (MLTK (human)): 108%
- residual activity (MYLK (human)): 95.1%
- residual activity (NEK4 (human)): 94.4%
- residual activity (PLK2 (human)): 102%
- residual activity (PRKACA (human)): 102%
- residual activity (PRKCA (human)): 115%
- residual activity (PRKX (human)): 97.4%
- residual activity (RPS6KA4 KD2 (human)): 90.1%
- residual activity (RPS6KA6 KD1 KD2 (human)): 96.8%
- residual activity (SIK2 (human)): 92.2%
- residual activity (SRPK1 (human)): 77%
- residual activity (STK16 (human)): 102%
- residual activity (STK39 (human)): 99.2%
- residual activity (TTK (human)): 116%
- residual activity (WNK2 (human)): 92.4%
- residual activity (WNK3 (human)): 89.1%
- residual activity (ZAP70 (human)): 99.7%

SMILES: C#Cc1cccc(Nc2ncnc3cc(OCCOC)c(OCCOC)cc23)c1
- residual activity (BLK (human)): 79.4%
- residual activity (BRSK2 (human)): 100%
- residual activity (CAMKK2 (human)): 97.1%
- residual activity (CDK6 CCND3 (human)): 117%
- residual activity (CLK2 (human)): 93.4%
- residual activity (CSK (human)): 100%
- residual activity (CSNK2A1 (human)): 78.9%
- residual activity (DAPK2 (human)): 92.5%
- residual activity (EPHA3 (human)): 93.2%
- residual activity (ERBB4 (human)): 61.4%
- residual activity (FGFR1 (human)): 99.1%
- residual activity (FGFR2 (human)): 83.4%
- residual activity (GRK6 (human)): 99.2%
- residual activity (GSK3A (human)): 99.3%
- residual activity (IRAK1 (human)): 95.9%
- residual activity (LTK (human)): 66.3%
- residual activity (MAP3K7 TAB1 (human)): 88.8%
- residual activity (MARK2 (human)): 129%
- residual activity (MLTK (human)): 92.2%
- residual activity (PLK2 (human)): 104%
- residual activity (PRKACA (human)): 93.4%
- residual activity (PRKCA (human)): 88.6%
- residual activity (PRKX (human)): 111%
- residual activity (RPS6KA6 KD1 KD2 (human)): 99.1%
- residual activity (STK16 (human)): 98%
- residual activity (STK39 (human)): 97%
- residual activity (TTK (human)): 91.8%
- residual activity (WNK3 (human)): 101%
- residual activity (ZAP70 (human)): 94.4%

SMILES: CS(=O)c1ccc(-c2nc(-c3ccc(F)cc3)c(-c3ccncc3)[nH]2)cc1 (stereo unspecified)
- residual activity (ALK (human)): 105%
- residual activity (BLK (human)): 102%
- residual activity (BRSK2 (human)): 101%
- residual activity (CAMKK2 (human)): 110%
- residual activity (CDK6 CCND3 (human)): 94.6%
- residual activity (CLK2 (human)): 108%
- residual activity (CSK (human)): 87.7%
- residual activity (CSNK2A1 (human)): 86.2%
- residual activity (DAPK2 (human)): 102%
- residual activity (DDR2 (human)): 103%
- residual activity (DYRK1A (human)): 95.6%
- residual activity (EPHA3 (human)): 96.1%
- residual activity (ERBB4 (human)): 66.8%
- residual activity (FGFR1 (human)): 90.7%
- residual activity (FGFR2 (human)): 103%
- residual activity (FGFR3 (human)): 97%
- residual activity (GRK6 (human)): 102%
- residual activity (GSK3A (human)): 94.1%
- residual activity (HCK (human)): 96.1%
- residual activity (IRAK1 (human)): 129%
- residual activity (JAK2 JH1 JH2 (human)): 99.5%
- residual activity (LTK (human)): 101%
- residual activity (MAP3K7 TAB1 (human)): 94%
- residual activity (MARK2 (human)): 99.1%
- residual activity (MLTK (human)): 100%
- residual activity (MYLK (human)): 101%
- residual activity (NEK4 (human)): 98.2%
- residual activity (PLK2 (human)): 95.6%
- residual activity (PRKACA (human)): 98.9%
- residual activity (PRKCA (human)): 92.3%
- residual activity (PRKX (human)): 99.3%
- residual activity (RPS6KA4 KD2 (human)): 99.6%
- residual activity (RPS6KA6 KD1 KD2 (human)): 110%
- residual activity (SIK2 (human)): 82.1%
- residual activity (SRPK1 (human)): 99.5%
- residual activity (STK16 (human)): 111%
- residual activity (STK39 (human)): 93.9%
- residual activity (TTK (human)): 99.9%
- residual activity (WNK2 (human)): 103%
- residual activity (WNK3 (human)): 99%
- residual activity (ZAP70 (human)): 94.4%
